Source: BindingDB's records for doi:10.7270/Q2H70D7S (Burnham Center For Chemical Genomics, 2010)

Molecular target: Kappa-type opioid receptor (Homo sapiens, UniProt P41145)
Assay: kappa opioid receptor blockers, cell-based, luminescence, beta-arrestin, SAR follow-up (AID 2285)

Sequence of Kappa-type opioid receptor (P41145 whole entry): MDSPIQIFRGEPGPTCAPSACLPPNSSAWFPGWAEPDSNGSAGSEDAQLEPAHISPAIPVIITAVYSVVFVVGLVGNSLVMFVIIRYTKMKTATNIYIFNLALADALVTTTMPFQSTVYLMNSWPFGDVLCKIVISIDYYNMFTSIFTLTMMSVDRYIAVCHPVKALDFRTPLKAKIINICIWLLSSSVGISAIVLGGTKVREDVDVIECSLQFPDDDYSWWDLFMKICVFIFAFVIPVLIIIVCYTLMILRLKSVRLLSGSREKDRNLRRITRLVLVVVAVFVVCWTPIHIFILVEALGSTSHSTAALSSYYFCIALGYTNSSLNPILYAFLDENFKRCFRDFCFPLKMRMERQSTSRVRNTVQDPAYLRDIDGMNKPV

SMILES: Oc1ccc(CN=Nc2ccnc3cc(Cl)ccc23)cc1O [(4Z)-4-[[2-(7-chloroquinolin-4-yl)hydrazinyl]methylidene]-2-hydroxycyclohexa-2,5-dien-1-one]
- IC50: 10 µM

SMILES: CCC(N=Nc1ccnc2cc(Cl)ccc12)c1ccc(O)cc1 (configuration not stated) [4-[1-[2-(7-chloroquinolin-4-yl)hydrazinyl]propylidene]cyclohexa-2,5-dien-1-one]
- IC50: 3.54 µM
